What was measured:
[1] = system: A549 cells infected with L. corymbifera; experiment: L. corymbifera-induced damage of A549 cells (LDH assay); assay type: cell-based, human; settings: 25 μM Mifepristone overnight and/or 25 μM Gefitinib 1 h, 24 h infection (FIG. 14)
[2] = system: R. delemar; experiment: Neutropenic mouse model of pulmonary mucormycosis, survival; assay type: in vivo, mice; settings: for protection from pulmonary mucormycosis (survival): 10 mg/kg for 5 consecutive days starting 4 h post infection; for protection from pulmonary mucormycosis, delayed administration: treatment delayed for 30 h post infection, administered alone
Description: Murine models of Mucormycosis. Male ICR mice (20-25 g from Envigo) were immunosuppresed by cyclophosphamide (200 mg/kg administered intraperotenually [i.p]) and cortisone acetate (500 mg/kg, adminstered subcutaneously) given on days −2, +3, and +9 relative to infection. […] To control for bacterial infection, immunosuppressed mice received 50 mg/L Baytrial (enrofloxacin: Bayer, Leverkusen, Germany) ad libitum on Day −3 thorough Day 0, after which Baytril was replaced with daily ceftazidime (5 mg/mouse) treatment adminstered subcutaneously through day+13 days post infection. Mice were infected with 2.5×10^5 spores of R. delemar 99-880 in 25 μL PBS given intratracheally as previously described (Luo G, Gebremariam T, Lee H, French S W, Wiederhold N P, Patterson T F, Filler S G, Ibrahim A S. 2013. Efficacy of liposomal amphotericin B and posaconazole in intratracheal models of murine mucormycosis. Antimicrobial agents and chemotherapy 57:3340-7). […] Placebo mice received DMA:PEG300. Survival of mice served as the primary endpoint with moribund mice humanely euthanized. To determine effect of treatment on tissue fungal burden mice were immunosuppressed and infected as above. Gefitinib treatment started 4 post infection and continued through Day +3. On Day +4, mice were sacrificed and lungs and brains, representing primary and secondary target organs (Luo G, Gebremariam T, Lee H, French S W, Wiederhold N P, Patterson T F, Filler S G, Ibrahim A S. 2013. Efficacy of liposomal amphotericin B and posaconazole in intratracheal models of murine mucormycosis. Antimicrobial agents and chemotherapy 57:3340-7), were collected and processed for tissue fungal burden by qPCR (Ibrahim A S, Bowman J C, Avanessian V, Brown K, Spellberg B, Edwards J E, Jr., Douglas C M. 2005. Caspofungin inhibits Rhizopus oryzae 1,3-beta-D-glucan synthase, lowers burden in brain measured by quantitative PCR, and improves survival at a low but not a high dose during murine disseminated zygomycosis. Antimicrobial agents and chemotherapy 49:721-7.) Values are expressed as Log10 spore equivalents per gram tissue.
Statistical Analyses. In vitro experiments were performed in triplicate on two or three separate days. Data were expressed as median±interquartile range. Treatment groups were compared to controls using the Wilcoxon rank-sum test and P values <0.05 were considered significant. For the murine studies, survival of mice was analyzed using the Log Rank test, whereas differences in tissue fungal burden were analyzed by the Wilcoxon Rank Sum test using Graph pad Prism 6. P values of <0.05 were considered significant.

[3] = system: A549 cells infected with M. circinelloides; experiment: M. circinelloides-induced damage of A549 cells (LDH assay); assay type: cell-based, human; settings: 25 μM Mifepristone overnight and/or 25 μM Gefitinib 1 h, 24 h infection (FIG. 14)
[4] = system: other Mucormycosis-causing fungi; experiment: In vitro infection with other mucormycosis-causing fungi (FIG. 23); assay type: cell-based
[5] = system: R. delemar; experiment: Tissue fungal burden of lungs and brains by qPCR in neutropenic mice; assay type: in vivo; settings: 10 mg/kg starting 4 h post infection through Day +3, organs collected Day +4, qPCR
Description: Murine models of Mucormycosis. Male ICR mice (20-25 g from Envigo) were immunosuppresed by cyclophosphamide (200 mg/kg administered intraperotenually [i.p]) and cortisone acetate (500 mg/kg, adminstered subcutaneously) given on days −2, +3, and +9 relative to infection. […] To control for bacterial infection, immunosuppressed mice received 50 mg/L Baytrial (enrofloxacin: Bayer, Leverkusen, Germany) ad libitum on Day −3 thorough Day 0, after which Baytril was replaced with daily ceftazidime (5 mg/mouse) treatment adminstered subcutaneously through day+13 days post infection. […] On Day +4, mice were sacrificed and lungs and brains, representing primary and secondary target organs (Luo G, Gebremariam T, Lee H, French S W, Wiederhold N P, Patterson T F, Filler S G, Ibrahim A S. 2013. Efficacy of liposomal amphotericin B and posaconazole in intratracheal models of murine mucormycosis. Antimicrobial agents and chemotherapy 57:3340-7), were collected and processed for tissue fungal burden by qPCR (Ibrahim A S, Bowman J C, Avanessian V, Brown K, Spellberg B, Edwards J E, Jr., Douglas C M. 2005. Caspofungin inhibits Rhizopus oryzae 1,3-beta-D-glucan synthase, lowers burden in brain measured by quantitative PCR, and improves survival at a low but not a high dose during murine disseminated zygomycosis. […]
Statistical Analyses. […] Data were expressed as median±interquartile range. […]

[6] = system: A549 cells infected with R. oryzae; experiment: R. oryzae-induced damage of A549 cells (LDH assay); assay type: cell-based, human; settings: 25 μM Mifepristone overnight and/or 25 μM Gefitinib 1 h, 24 h infection (FIG. 14)
Description: R. delemar-induced A549 cell damage was quantified using the Pierce LDH assay, with slight modifications to the manufacturer's protocol. Briefly, A549 cells were grown in 96-well tissue culture plates for 18 to 24 h. […] For controls, host cells were incubated with the appropriate amount of diluent used to reconstitute the in parallel. After 24 h of incubation at 37° C., 50 μl of the cell culture supernatant was collected from uninfected, infected, and fungus-only control wells and transferred to a 96-well plate to assay for LDH activity. Lysis buffer was added to all infected wells, and the mixture was incubated for 45 min at 37° C. After lysis, 50 μl of cell culture supernatant was transferred to a 96-well plate and used for the LDH assay kit per the protocol. LDH release was calculated as follows: % cytotoxicity=[(experimental release−fungal cell spontaneous control−host cell spontaneous control)/(host cell maximum control−fungal cell maximum control−host cell spontaneous control)]×100. LDH is a cytosolic enzyme but will be released into the cell culture medium upon cell membrane damage. The amount of extracellular LDH is proportional to the amount of cell damage.

[7] = neutropenic mice infected intratracheally, 10 mg/kg i.p. for 5 consecutive days starting 4 h post infection

COc1cc2ncnc(Nc3ccc(F)c(Cl)c3)c2cc1OCCCN1CCOCC1 [Gefitinib]
L. corymbifera-induced damage [1]: significantly decreased | protection from pulmonary mucormycosis (survival) [2]: protects mice from pulmonary mucormycosis | protection from pulmonary mucormycosis (survival) ([2]; listed as gefitinib): protected | 18-day survival ([2]; delayed treatment beginning 30 h post infection for 6 consecutive days, 10 mg/kg gefitinib, 20 mg/kg posaconazole or both): ~30% | median survival time [2, 7]: > 21 days | mice survived the infection by Day 21 [2, 7]: 55% | protection from pulmonary mucormycosis, delayed administration [2]: protects mice from pulmonary mucormycosis | protection from pulmonary mucormycosis, delayed administration ([2]; listed as gefitinib): protected mice from pulmonary mucormycosis | M. circinelloides-induced damage [3]: significantly decreased | in vitro infection of other Mucormycosis-causing fungi [4]: Inhibits | reduction in fungal burden in organs (lungs and brains) compared to placebo-treated mice [5]: ~1 log | R. oryzae-induced damage [6]: significantly decreased
